These results are taken from patent US20240183860A1, “Chimeric ABC Transporters and Screening Methods” (Genentech, Inc., priority 2021, published 2024).

This experiment concerns the target T1, E. coli MsbA (EcMsbA) (Escherichia coli, UniProt P60752).
T1 construct: FLAG (N); made in house; host or cells: E. coli (strain for the WT protein not restated)
As to the kind of experiment: MsbA ATPase assay (Transcreener ADP2 FP). Format: biochemical. The settings on record: IC50 for inhibition of ATPase activity of MsbA, experiment of FIG. 3F / b233. The procedure: The ATPase activity of MsbA was measured using a Transcreener ADP2 FP Assay (BellBrook Labs). […] The final condition for the reaction was MsbA enzyme, 50 μM ATP in 50 mM Tris pH 7.5, 10 mM MgCl2, 1% glycerol, 0.1% bovine gamma globulin, 1 mM dithiothreitol (DTT), 0.007% Brij-35 and 0.5% dimethylsulfoxide (DMSO). The following concentrations were used for each MsbA variant: 5 nM of EcMsbA, EnMsbA, KpMsbA and 80 nM PaMsbA reconstituted in amphipol, 15 nM EcMsbA and EcMsbA-chim5 in LMNG detergent, 22 nM EcMsbA and 27 nM EcMsbA-12G7 complex in aDDM detergent. The enzyme reaction was incubated for 1 hour at room temperature, then quenched by adding the Transcreener Detection Buffer. The IC50 was determined by fitting the inhibition dose-response curve with a nonlinear four-parameter inhibition model (GraphPad Prism).

Molecules are shown by their SMILES. Bridge positions count the residues as written; N and C are the ends. Square brackets hold non-standard residues; d marks the D form. Peptide text beside a SMILES is read from it. NMeF = CN[C@@H](Cc1ccccc1)C(=O)O; NMeA = CN[C@@H](C)C(=O)O; Sar = CNCC(=O)O

T1 sequence (P60752 whole entry): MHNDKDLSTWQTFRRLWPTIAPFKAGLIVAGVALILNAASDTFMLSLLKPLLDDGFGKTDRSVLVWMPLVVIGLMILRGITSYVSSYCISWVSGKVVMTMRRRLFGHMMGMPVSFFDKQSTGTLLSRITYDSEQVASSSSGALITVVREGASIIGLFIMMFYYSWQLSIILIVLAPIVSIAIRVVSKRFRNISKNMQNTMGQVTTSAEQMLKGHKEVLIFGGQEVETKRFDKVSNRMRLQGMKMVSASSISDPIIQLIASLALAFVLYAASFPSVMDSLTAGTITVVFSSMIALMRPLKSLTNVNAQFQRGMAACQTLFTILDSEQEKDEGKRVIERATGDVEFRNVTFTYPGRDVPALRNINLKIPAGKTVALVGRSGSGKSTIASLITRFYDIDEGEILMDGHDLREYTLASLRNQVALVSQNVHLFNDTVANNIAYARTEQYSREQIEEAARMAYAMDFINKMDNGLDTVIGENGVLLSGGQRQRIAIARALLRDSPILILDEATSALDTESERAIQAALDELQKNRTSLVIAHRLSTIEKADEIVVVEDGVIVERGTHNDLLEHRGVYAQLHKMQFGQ

The compound `CC(C)C[C@@H]1NC(=O)[C@H](Cc2c[nH]c3ccccc23)NC(=O)[C@H](Cc2c[nH]c3ccccc23)NC(=O)[C@H](Cc2ccccc2)NC(=O)CSC[C@@H](C(N)=O)NC(=O)[C@H](C(C)C)NC(=O)[C@H](Cc2ccccc2)N(C)C(=O)[C@H](Cc2c[nH]c3ccccc23)NC(=O)[C@H](Cc2c[nH]c3ccccc23)NC(=O)[C@H](CC(=O)O)NC(=O)CN(C)C(=O)[C@H](CC(=O)O)NC(=O)[C@H](CO)NC(=O)[C@H](Cc2c[nH]c3ccccc23)NC1=O` [Compound G1119] ({CH2CO}-FWWLWSD[Sar]DWW[NMeF]VC-NH2; thioether N-14) showed a concentration for half-maximal inhibition (IC50) of 5 nM.
Compound `CC(C)C[C@@H]1NC(=O)CNC(=O)[C@H](Cc2c[nH]c3ccccc23)NC(=O)[C@H](C)N(C)C(=O)[C@H](Cc2c[nH]c3ccccc23)NC(=O)[C@H](CC(C)C)NC(=O)[C@H](Cc2ccc(O)cc2)NC(=O)[C@H](CCCNC(=N)N)NC(=O)[C@H](Cc2ccccc2)NC(=O)CSC[C@@H](C(N)=O)NC(=O)[C@H](CC(N)=O)NC(=O)[C@H](CC(=O)O)NC(=O)[C@H](Cc2c[nH]c3ccccc23)NC(=O)[C@H](C(C)C)NC1=O` [Compound G1122] ({CH2CO}-FRYLW[NMeA]WGLVWDNC-NH2; thioether N-14) gave an IC50 of 2 nM.

By IC50 is commonly meant the concentration that gives 50% inhibition. Low values mean inhibition by little substance, high ones a need for much substance.
